Test results from patent US20200207872A1, “METHODS FOR TREATING INFLAMMATION AND RELATED DISEASES AND DISORDERS BY INHIBITING ALPHA PROTEIN KINASE 1” (Shanghai Yao Yuan Biotechnology Co., Ltd., priority 2017, published 2020).

Key:
[1] = tested on: DSS-induced colitis model; test: DSS-induced colitis model, body weight; format: in vivo; conditions: female wild type FVC mice, 3% DSS day 0 to day 5, then 1 mg/kg IP daily in DMSO vs DMSO alone
Procedure: Mice were treated with 3% DSS from day 0 to day 5 then changed to drinking water and injected IP with either MI6C (1 mg/kg) dissolved in DMSO (n=6) or DMSO alone (n=5) daily.
The ability of MI6 to ameliorate inflammation in the DSS-induced colitis model was evaluated as follows. 8 weeks old female wild type FVC mice were treated with 3% DSS (Sodium salt, MW 40K-50K, from Affymetrix) from day 0 to day 5. The mice were then changed to drinking water. Mice were injected intraperitoneally (IP) with either MI6 (1 mg/kg) dissolved in DMSO (n=6) or DMSO alone (n=5) daily. Animals were weighed daily.

[2] = target: ALPK1 (Homo sapiens, UniProt Q96QP1); test: Screening of small molecule libraries for inhibitory activity against ALPK1 (binding, kinase and cell-based cytokine secretion assays); format: biochemical; conditions: performance in the binding and kinase assays and in at least two cell-based assays
Chain of ALPK1 (Q96QP1 whole entry): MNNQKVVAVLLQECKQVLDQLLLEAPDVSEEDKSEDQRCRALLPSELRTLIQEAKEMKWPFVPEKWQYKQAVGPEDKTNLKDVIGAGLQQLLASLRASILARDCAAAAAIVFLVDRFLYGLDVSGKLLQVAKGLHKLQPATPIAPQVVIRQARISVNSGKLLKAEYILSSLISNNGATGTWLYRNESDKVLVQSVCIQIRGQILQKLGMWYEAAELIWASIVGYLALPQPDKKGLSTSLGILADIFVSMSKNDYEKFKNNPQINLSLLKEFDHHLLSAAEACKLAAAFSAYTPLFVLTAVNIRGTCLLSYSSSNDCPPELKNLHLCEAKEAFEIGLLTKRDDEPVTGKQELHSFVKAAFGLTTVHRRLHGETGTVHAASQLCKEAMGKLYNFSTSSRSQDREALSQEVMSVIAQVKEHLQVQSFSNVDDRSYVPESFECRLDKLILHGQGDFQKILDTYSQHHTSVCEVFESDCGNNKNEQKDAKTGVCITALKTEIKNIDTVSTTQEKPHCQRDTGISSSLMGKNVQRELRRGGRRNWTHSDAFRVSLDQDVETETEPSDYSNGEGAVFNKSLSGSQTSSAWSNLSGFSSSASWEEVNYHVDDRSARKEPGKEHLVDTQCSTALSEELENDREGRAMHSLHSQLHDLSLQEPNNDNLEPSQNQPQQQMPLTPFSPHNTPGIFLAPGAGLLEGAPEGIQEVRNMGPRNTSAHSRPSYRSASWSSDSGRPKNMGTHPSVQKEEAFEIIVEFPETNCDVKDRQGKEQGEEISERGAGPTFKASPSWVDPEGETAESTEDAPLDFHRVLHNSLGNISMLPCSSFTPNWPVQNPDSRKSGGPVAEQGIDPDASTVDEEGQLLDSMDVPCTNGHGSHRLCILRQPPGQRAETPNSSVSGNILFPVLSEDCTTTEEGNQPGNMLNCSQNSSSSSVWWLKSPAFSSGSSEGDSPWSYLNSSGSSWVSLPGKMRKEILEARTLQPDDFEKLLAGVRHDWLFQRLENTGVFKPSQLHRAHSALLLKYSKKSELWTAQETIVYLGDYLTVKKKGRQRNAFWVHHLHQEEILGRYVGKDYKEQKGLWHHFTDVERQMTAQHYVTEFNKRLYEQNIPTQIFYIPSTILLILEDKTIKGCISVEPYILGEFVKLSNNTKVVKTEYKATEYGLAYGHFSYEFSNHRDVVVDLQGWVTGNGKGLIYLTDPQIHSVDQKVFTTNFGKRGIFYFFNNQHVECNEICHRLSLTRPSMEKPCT
Excerpt: An ALPK1 inhibitor was identified by screening libraries of small molecules for inhibitory activity against ALPK1. Various assays were used to screen the libraries including binding assays, kinases assays, and cell-based assays for cytokine secretion.

## CCCCCCCCCCCCCCCC[n+]1ccn(Cc2ccccc2)c1C [MI6, 1-benzyl-3-hexadecyl-2-methyl-1H-imidazol-3-ium]
[1]
  weight gain (change in weight relative to day 0) / recovery: improved weight gain
[1]; listed as MI6C
  weight gain (change in weight relative to day 0) / recovery: improves recovery
[2]
  inhibitory activity against ALPK1: identified as an ALPK1 inhibitor
